The format of the data set is in vivo, human. The settings on record: percent; CLCr > 60 mg/dL (normal renal function), n = 22.

teicoplanin: the “Patients with plasma teicoplanin >10mg/L” value is reported as 63%.

The values above are taken from PMC3970309 (Infection & Chemotherapy, 2014).
